From US20220163532A1, “NUCLEAR-DERIVED EXOSOMES AND METHODS OF USE THEREOF” (Board of Regents, The University of Texas System, priority 2019, published 2022) come the findings set out here.

In this assay the test system is OVCAR-5 and OVCAR-8 cells. Put plainly: MN quantification in ovarian cancer cells treated with genotoxic drugs (IF, Lamin A/C). It is filed as cell-based, human. As to conditions: topotecan 10 nM or olaparib 20 μM, vs DMSO. The method, then: IF experiments and MN quantification. Cells were plated at a density of 5×10^4 cells on sterile, 0.17-mm-thick coverslips (12-548-A, Thermo Fisher Scientific) placed at the bottom of six-well plates. The next day, cells were treated for 24 hours with either vehicle control dimethyl sulfoxide (DMSO; 1:1000 dilution; D2650, Sigma-Aldrich), 20 μM olaparib (O-9201, LC Laboratories), or 10 nM topotecan (T2705-50MG, Sigma-Aldrich). After 24 hours, the cells were washed with PBS and refed with the appropriate cell culture medium to grow for another 48 hours, for a total time of 72 hours after initial plating on the coverslips.
The drug-treated cells were first washed three times with PBS, fixed with 4% paraformaldehyde (PFA; 50-980-487, Thermo Fisher Scientific) diluted in PBS, and incubated at RT for 15 min with light rocking. […] Last, cells on coverslips were then washed four times with PBS and mounted on slides using ProLong Diamond Antifade Mountant (P36961, Thermo Fisher Scientific) and imaged with a Leica fluorescence microscope (Leica DM4000 M LED; Leica Microsystems) or an Andor Revolution XDi WD Spinning Disk Confocal microscope. For MN quantification, the number of MN in each 40× field was counted using 10 fields per sample. […]

Regarding `CC[C@@]1(O)C(=O)OCc2c1cc1n(c2=O)Cc2cc3c(CN(C)C)c(O)ccc3nc2-1` [topotecan], the “number of MN” value is on record as “increased significantly”.
